Laboratory results published in the supplement of paper PMC10307832.

What was measured:
Assay in all cases: relative viability (nuclei count vs DMSO), 5 days (fraction); higher = more cells survive
NCI-H1793 = system: NCI-H1793
Summary of the method: (§1)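 One day after seeding in 1536-well plates, lung cancer cell lines were dosed by pin tool. Dosing was either single-drug or a fixed anchor-drug dose plus five library-drug doses (not always all listed) in √10 steps. After 5 days, nuclei were stained in one fix-and-stain step and counted on 4× images, and relative viability is the nuclei count of treated wells over that of vehicle wells, given as the median of duplicate plates.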

NCI-H23 = system: NCI-H23
Summary of the method: as §1

HARA = system: HARA
Summary of the method: as §1

LC-2-ad = system: LC-2-ad
Summary of the method: as §1

NCI-H2023 = system: NCI-H2023
Summary of the method: as §1

HCC-78 = system: HCC-78
Summary of the method: as §1

NCI-H2009 = system: NCI-H2009
Summary of the method: as §1

NCI-H2228 = system: NCI-H2228
Summary of the method: as §1

COR-L23 = system: COR-L23
Summary of the method: as §1

HCC-15 = system: HCC-15
Summary of the method: as §1

NCI-H1944 = system: NCI-H1944
Summary of the method: as §1

ChaGo-K-1 = system: ChaGo-K-1
Summary of the method: as §1

A-427 = system: A-427
Summary of the method: as §1

SK-LU-1 = system: SK-LU-1
Summary of the method: as §1

HCC-366 = system: HCC-366
Summary of the method: as §1

NCI-H838 = system: NCI-H838
Summary of the method: as §1

NCI-H2405 = system: NCI-H2405
Summary of the method: as §1

ABC-1 = system: ABC-1
Summary of the method: as §1

EMC-BAC-2 = system: EMC-BAC-2
Summary of the method: as §1

LK-2 = system: LK-2
Summary of the method: as §1

NCI-H1650 = system: NCI-H1650
Summary of the method: as §1

NCI-H1993 = system: NCI-H1993
Summary of the method: as §1

UMC-11 = system: UMC-11
Summary of the method: as §1

NCI-H1734 = system: NCI-H1734
Summary of the method: as §1

CC(C)Oc1cc(Nc2nc(N[C@@H](C)c3ccc(F)cn3)ncc2Cl)n[nH]1 [AZ23] + CC(=O)c1c(C)c2cnc(Nc3ccc(N4CCNCC4)cn3)nc2n(C2CCCC2)c1=O [Palbociclib] (partner 0.5 µM)
relative viability (NCI-H1793; first compound 0.01 µM): 0.347
relative viability (NCI-H1793; first compound 0.03162 µM): 0.35
relative viability (NCI-H1793; first compound 0.3162 µM): 0.247
relative viability (NCI-H23; first compound 0.03162 µM): 0.548
relative viability (NCI-H23; first compound 0.3162 µM): 0.512
relative viability (HARA; first compound 0.01 µM): 0.254
relative viability (HARA; first compound 0.03162 µM): 0.156
relative viability (HARA; first compound 0.3162 µM): 0.213
relative viability (LC-2-ad; first compound 0.01 µM): 0.593
relative viability (LC-2-ad; first compound 0.03162 µM): 0.529
relative viability (LC-2-ad; first compound 0.3162 µM): 0.501
relative viability (NCI-H2023; first compound 0.03162 µM): 0.369
relative viability (NCI-H2023; first compound 0.3162 µM): 0.264
relative viability (HCC-78; first compound 0.01 µM): 0.533
relative viability (HCC-78; first compound 0.03162 µM): 0.463
relative viability (HCC-78; first compound 0.3162 µM): 0.544
relative viability (NCI-H2009; first compound 0.01 µM): 0.2
relative viability (NCI-H2009; first compound 0.03162 µM): 0.185
relative viability (NCI-H2009; first compound 0.3162 µM): 0.196
relative viability (NCI-H2228; first compound 0.01 µM): 0.809
relative viability (NCI-H2228; first compound 0.03162 µM): 0.811
relative viability (NCI-H2228; first compound 0.3162 µM): 0.907
relative viability (COR-L23; first compound 0.01 µM): 0.239
relative viability (COR-L23; first compound 0.03162 µM): 0.301
relative viability (COR-L23; first compound 0.3162 µM): 0.254
relative viability (HCC-15; first compound 0.01 µM): 0.881
relative viability (HCC-15; first compound 0.03162 µM): 0.757
relative viability (HCC-15; first compound 0.3162 µM): 0.799
relative viability (NCI-H1944; first compound 0.01 µM): 0.304
relative viability (NCI-H1944; first compound 0.03162 µM): 0.342
relative viability (NCI-H1944; first compound 0.3162 µM): 0.278
relative viability (ChaGo-K-1; first compound 0.01 µM): 1.12
relative viability (ChaGo-K-1; first compound 0.03162 µM): 0.97
relative viability (ChaGo-K-1; first compound 0.3162 µM): 1
relative viability (A-427; first compound 0.01 µM): 0.459
relative viability (A-427; first compound 0.03162 µM): 0.524
relative viability (A-427; first compound 0.3162 µM): 0.586
relative viability (SK-LU-1; first compound 0.03162 µM): 0.416
relative viability (SK-LU-1; first compound 0.3162 µM): 0.414
relative viability (HCC-366; first compound 0.01 µM): 0.303
relative viability (HCC-366; first compound 0.03162 µM): 0.513
relative viability (HCC-366; first compound 0.3162 µM): 0.458
relative viability (NCI-H838; first compound 0.01 µM): 0.227
relative viability (NCI-H838; first compound 0.03162 µM): 0.23
relative viability (NCI-H838; first compound 0.3162 µM): 0.247
relative viability (NCI-H2405; first compound 0.01 µM): 0.585
relative viability (NCI-H2405; first compound 0.03162 µM): 0.52
relative viability (NCI-H2405; first compound 0.3162 µM): 0.589
relative viability (ABC-1; first compound 0.01 µM): 0.765
relative viability (ABC-1; first compound 0.03162 µM): 0.82
relative viability (ABC-1; first compound 0.3162 µM): 0.694
relative viability (EMC-BAC-2; first compound 0.01 µM): 0.527
relative viability (EMC-BAC-2; first compound 0.03162 µM): 0.523
relative viability (EMC-BAC-2; first compound 0.3162 µM): 0.52
relative viability (LK-2; first compound 0.03162 µM): 0.544
relative viability (LK-2; first compound 0.3162 µM): 0.678
relative viability (NCI-H1650; first compound 0.01 µM): 0.303
relative viability (NCI-H1650; first compound 0.03162 µM): 0.439
relative viability (NCI-H1650; first compound 0.3162 µM): 0.378
relative viability (NCI-H1993; first compound 0.01 µM): 0.559
relative viability (NCI-H1993; first compound 0.03162 µM): 0.695
relative viability (NCI-H1993; first compound 0.3162 µM): 0.477
relative viability (UMC-11; first compound 0.01 µM): 0.341
relative viability (UMC-11; first compound 0.03162 µM): 0.338
relative viability (UMC-11; first compound 0.3162 µM): 0.353
relative viability (NCI-H1734; first compound 0.01 µM): 0.317
relative viability (NCI-H1734; first compound 0.03162 µM): 0.366
relative viability (NCI-H1734; first compound 0.3162 µM): 0.359
